Test results as given in patent publication US20130131146A1, “Compositions and Methods for Treating Pulmonary Conditions” (THE JOHNS HOPKINS UNIVERSITY, priority 2010, published 2013).
Entries after “also recorded” stand apart in the source; their conditions may differ. Like-named read-outs stand apart in the source and are kept apart here.

What was measured:
[1] = tested on: chronic-CS induced lung inflammation and emphysema; test: Chronic cigarette smoke (24 weeks) induced lung inflammation and emphysema in C57BL/6 mice; format: in vivo
Text: Scale: white/black bar-50 μm.

membrane ceramide = test: ZO-1/ceramide co-immunostaining and confocal imaging of CFBE41o-WT-CFTR cells; format: cell-based, human; conditions: 6 hrs
lipid-raft CFTR = test: Intratracheal CD treatment of Cftr+/+ mice, lung immunofluorescence staining; format: in vivo, C57BL/6 mice; conditions: CD 75 μg/mouse i.t. for 3 days
Method: All animal experiments were carried out in accordance with the Johns Hopkins University (JHU) Animal Care and Use Committee (ACUC) approved protocols. Age-, weight-, and sex-matched (24 wk old), B6-12956-Cftr^−/− (Cftrtm^1Kthc-TgN(^FABPCFTR)) (30, 31) and Cftr^+/+ inbred mice strains (procured from Case Western Reserve University Animal Resource Center, Cleveland, Ohio; n=3-5 for all experiments). The changes in cytokine and inflammatory markers between Cftr^+/+and Cftr^−/− mice were verified by multiple (2, 3) experiments, and representative data are shown. All mice were housed in a controlled environment and pathogen-free conditions. […] Mice were sacrificed 24 h after drug treatment, and the bronchoalveolar lavage fluid (BALF) was collected for cytokine ELISAs. The lungs were fixed in 10% buffered formalin phosphate (Fisher Scientific, Pittsburgh, Pa.), paraffin embedded, and cut into longitudinal sections (5 μm thick) on glass slides for immunostaining. For depletion of membrane-CFTR in murine lungs, 72-h i.t. CD treatment was used, and lung tissues were collected as above. The mice (three to four mice per group, 8 to 10 wk old) were exposed to cigarette smoke (CS) using the TE-2 cigarette smoking machine (Teague Enterprises, Davis, Calif.). […] An average total particulate matter of 150 mg/m^3 was recorded in real time during the smoking protocols. […] The human lung tissue samples from Gold stage I (mild, forced expiratory volume [FEV1]% predicted>80%), Gold stage 11 (moderate, FEV1% predicted=˜50-80%), and Gold stage III-IV (severe/very severe, FEV1% predicted <50%) nontumor COPD (with FEV1/forced vital capacity [FVC] ratio of <70%) and Gold stage 0 (at risk) control subjects (procured from Lung Tissue Research Consortium [Bethesda, Md.], National Heart, Lung and Blood Institute, National Institutes of Health) were used for quantification and localization of indicated proteins by immunostaining All the subjects were stable, and Gold I-IV subjects had emphysema. […]

lipid-raft Fas and CFTR = test: Immunoblotting of lung lipid-raft protein fraction from CD treated and/or sub-chronic CS exposed Cftr+/+ mice; format: in vivo; conditions: CD i.t. 2×50 μg
NFκB = NFκB immunostaining of CFBE41o-WT-CFTR cells after lipid-raft CFTR depletion; format: cell-based, human; conditions: 5 mM CD, 6 hrs, ± 10 ng/ml Pa-LPS
IL-8 = IL-8 secretion ELISA in CFBE41o-WT-CFTR cells; format: cell-based, human; conditions: 5 mM CD, 24 hours; p<0.001
[2] = tested on: Pa-LPS-induced lung injury; format: in vivo, mice
ZO-2 = test: Lipid-raft ZO-2 expression by Western blotting in CFBE41o- and CFBE41o-WT-CFTR cells; format: cell-based, human
NFκB promoter = test: NFκB luciferase reporter assay in CFBE41o-wt-CFTR and CFBE41o- cells; format: cell-based, human; conditions: CFBE41o-wt-CFTR cells; 10 ng/ml TNFα, 50 μM FB1, 12 hours; p<0.05; only in the presence of cell surface CFTR
Text: The BALF and cell culture supernatants (n=3-5) were quantified in triplicate for mouse IL-6, IL-1β, or human IL-8 using ELISA kits (R&D Systems, or eBioscience, San Diego, Calif.) following the manufacturer's instructions. MPO levels in neutrophil culture supernatant or mouse BALF were similarly quantified using the MPO ELISA kit (Hycult Biotechnology, Uden, The Netherlands). For reporter assays, CFBE41o-WT-CFTR or CFBE41o-cells were transfected with NF-KB firefly luciferase promoter (pGL2) and renilla luciferase (pRLTK) control using Lipofectamine 2000 (Invitrogen). Renilla luciferase was used as an internal control for normalization of DNA and transfection efficiency of reporter constructs. […] Data were normalized with internal renilla luciferase control for each sample, and the changes in reporter activities with CFTR overexpression were calculated.

neutral SMase = conditions: at 5 mM GSH; cited from earlier work
[3] = Cftr+/+ mice, Pa-LPS i.t. 12 h, then drug i.t. 24 h
[4] = Cftr-/- mice, Pa-LPS i.t. 12 h, then drug i.t. 24 h

CCCCCCCCCC(=O)N[C@H](CN1CCOCC1)[C@H](O)c1ccccc1 [D-PDMP]
CS induced inflammation and emphysema (H&E) ([1]; chronic-CS 24 weeks, 50 μg/mouse): significant decrease
chronic-CS induced LacCer-accumulation (lung immunostaining) ([1]; chronic-CS 24 weeks, 50 μg/mouse, p<0.05): significantly downregulated
alveolar space enlargement (alveolar diameter, morphometric analysis) ([1]; chronic-CS 24 weeks, p=0.0016): significantly controlled
BALF IL-6 levels ([1]; chronic-CS exposed mice, n=3, p=0.009): rescued to basal levels
chronic-CS induced macrophage (F4/80-positive cells) infiltration in BALF ([1]; flow cytometry, p<0.01): significantly controls

TNFα
CD induced membrane ceramide accumulation (membrane ceramide; TNFα 10 ng/ml with CD 5 mM): depletes

methyl-β-cyclodextrin [CD]
NFκB activity (lung immunofluorescence) (lipid-raft CFTR): induces
expression of lipid-raft marker (ZO-2) (lipid-raft CFTR): significant increase
neutrophil chemotaxis (NIMPR14) (lipid-raft CFTR): induces
lipid-raft CFTR levels (lipid-raft Fas and CFTR): decrease
lipid-raft Fas expression (lipid-raft Fas and CFTR): increases
CFTR control of NFκB signaling (NFκB): abrogates its control of NFκB signaling
ceramide accumulation on the cell surface and lipid rafts (membrane ceramide; CD 5 mM): increases
IL-8 chemokine levels (IL-8): significantly induces

CN(C)CCC=C1c2ccccc2CCc2ccccc21 [AMT, Amitriptyline]
protection against Pa-LPS-induced lung injury ([2]; Cftr+/+ mice, FIG. 4B legend): relatively less protective
Pa-LPS-induced IL-1b secretion (BALF) [2, 3]: unable to rescue
Pa-LPS-induced IL-6 (BALF) [2, 3]: unable to rescue
inflammatory cytokines (BALF) ([2]; Cftr-/- mice, FIG. 4B legend): effectively controls
Pa-LPS-induced IL-1b levels (BALF) [2, 4]: significant decrease
Pa-LPS-induced IL-6 (BALF) [2, 4]: significant decrease

Fumonisin B1 [FB1]
lipid-raft ZO-2 expression (ZO-2; CFBE41o- cells (no functional CFTR), Pa-LPS 10 ng/ml or FB1 50 μM, 24 h): neither Pa-LPS nor FB1 is able to modulate
lipid-raft ZO-2 expression (ZO-2; in the presence of WT-CFTR (CFBE41o-WT-CFTR cells)): downregulated
Pa-LPS-induced IL-10 (BALF) ([2]; Cftr+/+ mice, FIG. 4A): significantly decreases
Pa-LPS-induced IL-1b secretion (BALF) [2, 3]: very significant decrease
Pa-LPS-induced IL-6 (BALF) [2, 3]: significantly decreases
reduction in the Pa-LPS-induced IL-6 levels (BALF) ([2]; Cftr+/+ mice, Pa-LPS i.t. 12 h, then drug i.t. 24 h, p<0.05): 2 fold
Pa-LPS-induced IL-1b levels (BALF) [2, 4]: unaltered
Pa-LPS-induced IL-6 (BALF) [2, 4]: decreased; also recorded: modest effect
TNFα mediated NFκB promoter activity (NFκB promoter): inhibits

N[C@@H](CCC(=O)N[C@@H](CS)C(=O)NCC(=O)O)C(=O)O [Glutathione]
inhibition of neutral SMase (neutral SMase): greater than 95%
